This is an account of results in patent US8106039B2, “Metal complex phosphatidyl-inositol-3-kinase inhibitors” (The Trustees Of The University Of Pennsylvania, priority 2008, dated 2012).

For assay [1], the system named is 1205Lu melanoma cell line. Put plainly: Cell proliferation (MTT) assay. It is filed as cell-based, human. Conditions: increasing concentrations, 72 hours, FIG. 4B. The protocol:
Cell Proliferation (MTT) Assay. Cells were plated into a 96-well plate at a density of 2.5×10^4 cells per ml and left to grow overnight. Cells were treated with increasing concentrations of E5E1 (0.03-30 μM), […] or LY 294002 (Calbiochem, San Diego, Calif.) (0.01-30 μM) in triplicate. In each instance cells were grown for 72 hours before being treated with 20 μl of MTT for 3 hours (Sigma). After this time, the media was rapidly removed and the MTT crystals were solubilized using DMSO. The resulting absorbance was read in a plate reader at 560 nm. Absorbance readings were subtracted from the value of blank wells, the reduction in cell growth was calculated as a percentage of control absorbance in the absence of any drug.

Assay [2] concerns melanoma cells grown as 3D collagen-implanted spheroids. Put plainly: 3D spheroid growth / invasion. Format: cell-based, human. The conditions noted are these: 30 μM; 72 hours; FIG. 4C. The protocol:
3D Spheroid Growth. Melanoma spheroids were prepared using the liquid overlay method. Briefly, […] of melanoma cells (25,000 cells per ml) were added to a 96-well plate coated with 1.5% agar (Difco, Sparks MD). Plates were left to incubate for 72 hours, by which time cells had organized into 3D spheroids. Spheroids were then harvested using a P1000 pipette. The media was removed and the spheroids were implanted into a gel of bovine collagen I containing EMEM, L-glutamine and 2% FBS. Normal 2% melanoma media was overlaid on top of the solidified collagen. Spheroids were treated with either E5E1 (10-30 μM), or E5E2 (10-30 μM), before being left to grow for 72 hours. Spheroids were then washed twice in PBS before being treated with calcein-AM, ethidium bromide (Molecular Probes, Eugene, Oreg.) for 1 hour at 37° C., according to the manufacturer's instruction. After this time, pictures of the invading spheroids were taken using a Nikon-300 inverted fluorescence microscope.

The target of assay [3] is T1, human PI3Kγ catalytic domain (Homo sapiens, UniProt P48736).
T1 construct: made in house; host or cells: baculovirus expression (virus obtained from the MRC, United Kingdom)
T1 sequence (P48736 144-1102 limits assumed): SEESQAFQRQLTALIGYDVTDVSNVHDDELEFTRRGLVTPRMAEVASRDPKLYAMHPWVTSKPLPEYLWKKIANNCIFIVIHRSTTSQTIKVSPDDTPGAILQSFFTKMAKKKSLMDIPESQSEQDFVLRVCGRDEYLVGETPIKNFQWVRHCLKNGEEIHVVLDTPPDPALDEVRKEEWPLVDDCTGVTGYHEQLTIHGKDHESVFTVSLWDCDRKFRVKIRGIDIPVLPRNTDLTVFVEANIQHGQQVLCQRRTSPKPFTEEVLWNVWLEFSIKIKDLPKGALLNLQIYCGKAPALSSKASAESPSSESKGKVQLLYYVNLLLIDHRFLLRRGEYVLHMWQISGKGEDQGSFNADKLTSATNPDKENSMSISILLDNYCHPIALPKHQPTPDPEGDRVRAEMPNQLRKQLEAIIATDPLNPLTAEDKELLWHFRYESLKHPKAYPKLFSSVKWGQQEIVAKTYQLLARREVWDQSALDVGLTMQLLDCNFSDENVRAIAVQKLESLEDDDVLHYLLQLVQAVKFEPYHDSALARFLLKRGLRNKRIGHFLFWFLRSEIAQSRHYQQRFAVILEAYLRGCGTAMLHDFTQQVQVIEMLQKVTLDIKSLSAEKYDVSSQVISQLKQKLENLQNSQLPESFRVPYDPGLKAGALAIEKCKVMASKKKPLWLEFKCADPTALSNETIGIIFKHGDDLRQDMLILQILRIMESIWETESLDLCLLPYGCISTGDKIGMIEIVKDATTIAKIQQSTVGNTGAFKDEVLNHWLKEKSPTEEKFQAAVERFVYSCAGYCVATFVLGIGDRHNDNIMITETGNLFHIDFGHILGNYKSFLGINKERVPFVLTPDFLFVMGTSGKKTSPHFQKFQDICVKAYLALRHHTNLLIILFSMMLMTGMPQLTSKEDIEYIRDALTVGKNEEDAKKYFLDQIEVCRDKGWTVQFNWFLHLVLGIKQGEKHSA
Nature of the assay: PI3K Kinase-Glo assay. Format: biochemical. The conditions noted are these: for IC50: 1.4 pmoles PI3K, FIG. 3A, read-out: IC50 PI3Kγ inhibition. As to the method: PI3K Kinase-Glo Assay. Recombinantly expressed human PI3Kγ catalytic domain was preincubated with various concentration of inhibitors with a final DMSO concentration of 2% in reaction buffer (20 mM Tris pH 7.5, 100 mM NaCl, 10 mM MgCl2) for 1 hour at room temperature before this mixture was added to a solution of 0.1 mg/mL D-myo-Phosphatidylinositol 4,5-biphosphate (PtdIns (4,5)P2, Echelon Biosciences) and 10 μM ATP. 14 pmoles PI3K was used in compounds DW12, DW12Me, EAd125 comparison and 1.4 pmoles PI3K was used for compounds E5, E5E2, E5E1 measurements. The kinase reaction was carried out in a 50 μL final volume in a 96-well microtiter plate at 37° C. for 3 hours before 50 μL Kinase-Glo® (Promega) developing solution was added into the mixture to generate a luminescence signal. The signal was recorded using the PerkinElmer Wallac 1420 luminometer using a luminescence filter. Data were processed and IC50 values were derived from using 2% DMSO and with no kinase as controls and a sigmoidal dose response curve fitting by GraphPad Prism.
For orientation: In Kinase-Glo more light means more ATP remaining.

Assay [4] has as its system phospho-AKT in a melanoma cell line. Put plainly: Western blot analysis of phospho-AKT in melanoma cells. It is filed as cell-based, human. The conditions noted are these: FIG. 4A. From the text:
Western Blot Analysis. Proteins were extracted and blotted for as described in (41). […] Antibodies to phospho-AKT and total AKT were from Cell Signaling Technology, (Beverly, Mass.). The monoclonal antibody to β-actin was from Sigma.
(In western blotting, separated proteins are transferred to a membrane and probed.)

The target in the next assay is BRAF^V600E (Homo sapiens, UniProt P15056, V600E). Put plainly: BRAF kinase assay (V600E). Conditions: inhibitor concentration of 4 μM; FIG. 3B. It is filed as biochemical. The protocol: (§1) BRAF kinase assay—Recombinantly expressed GST-MEK diluted in TTBS buffer (20 mM Tris pH 7.5, 150 mM NaCl, 0.05% TWEEN-20) to 50 μg/mL in a volume of 100 μL was bound to the wells of a 96-well glutathione coated plate (Pierce Biotechnology). 1 μL of compound with 2× serial dilutions in a 100% DMSO stock solution were added to a mixture of 50 μL of a buffer containing 50 mM HEPES pH 7.0 with 0.7 pmoles of BRAF kinase. This mixture was incubated at room temperature for 1 hour before it was added into the GST-MEK bound wells of the 96-well plate. An additional 50 μL of phosphorylation buffer (50 mM HEPES pH 7.0, 200 mM NaCl, 10 mM MgCl2, 200 μM ATP) was added into the well mixture to start the kinase reaction at 37° C. for 30 min with intermittent shaking. The kinase reaction was stopped by extensive washing with TTBS buffer and a 1:5000 dilution of Anti-phospho-MEK1 (Ser218/222)/MEK2 (Ser222/226) monoclonal antibody (Millipore) in TTBS was subsequently added into the wells and incubated for 1 hour with shaking. Goat Anti-Rabbit IgG (H+L)-HRP Conjugate (BioRad Laboratories) in a 1:5000 dilution was added into the wells to incubate at room temperature with shaking. Finally, the SuperSignal ELISA Pico chemiluminescent substrate (Pierce Biotechnology) was added into the wells. The luminescence signal was recorded with a luminescence filter using a Wallac 1420 luminometer (PerkinElmer).
Sequence of BRAF^V600E (P15056 whole entry V600E): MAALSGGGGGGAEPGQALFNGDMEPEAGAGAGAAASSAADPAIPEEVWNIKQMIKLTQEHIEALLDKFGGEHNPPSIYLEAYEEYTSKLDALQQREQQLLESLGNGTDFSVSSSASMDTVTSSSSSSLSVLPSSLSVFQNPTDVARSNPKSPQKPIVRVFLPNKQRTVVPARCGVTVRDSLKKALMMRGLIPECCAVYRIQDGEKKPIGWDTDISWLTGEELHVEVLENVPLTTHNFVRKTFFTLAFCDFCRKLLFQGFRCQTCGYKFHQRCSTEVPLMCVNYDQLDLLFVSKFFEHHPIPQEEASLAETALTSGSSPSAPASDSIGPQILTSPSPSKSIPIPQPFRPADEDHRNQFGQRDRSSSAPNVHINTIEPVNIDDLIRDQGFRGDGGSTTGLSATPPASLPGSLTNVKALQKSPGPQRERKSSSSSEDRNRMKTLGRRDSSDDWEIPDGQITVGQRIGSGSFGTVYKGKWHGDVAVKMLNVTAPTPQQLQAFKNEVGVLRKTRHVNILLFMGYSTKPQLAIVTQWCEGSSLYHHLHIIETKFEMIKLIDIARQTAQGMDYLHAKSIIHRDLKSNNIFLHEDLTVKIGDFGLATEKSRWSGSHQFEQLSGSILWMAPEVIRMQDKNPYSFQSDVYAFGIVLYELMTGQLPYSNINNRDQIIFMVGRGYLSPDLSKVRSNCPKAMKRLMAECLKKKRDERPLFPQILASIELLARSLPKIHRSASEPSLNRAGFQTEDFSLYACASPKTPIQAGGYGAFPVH

Assay [5] addresses BRAF mutants (Leu513 mutated to valine and alanine). Put plainly: BRAF kinase assay with site directed mutants. It is filed as biochemical, human. The conditions noted are these: FIG. 6B. As to the method:
as §1, with “(PerkinElmer). […]” for “(PerkinElmer).”

Another assay deals with T2, MST1 (Homo sapiens, UniProt Q13043).
T2 sequence (Q13043 1-487): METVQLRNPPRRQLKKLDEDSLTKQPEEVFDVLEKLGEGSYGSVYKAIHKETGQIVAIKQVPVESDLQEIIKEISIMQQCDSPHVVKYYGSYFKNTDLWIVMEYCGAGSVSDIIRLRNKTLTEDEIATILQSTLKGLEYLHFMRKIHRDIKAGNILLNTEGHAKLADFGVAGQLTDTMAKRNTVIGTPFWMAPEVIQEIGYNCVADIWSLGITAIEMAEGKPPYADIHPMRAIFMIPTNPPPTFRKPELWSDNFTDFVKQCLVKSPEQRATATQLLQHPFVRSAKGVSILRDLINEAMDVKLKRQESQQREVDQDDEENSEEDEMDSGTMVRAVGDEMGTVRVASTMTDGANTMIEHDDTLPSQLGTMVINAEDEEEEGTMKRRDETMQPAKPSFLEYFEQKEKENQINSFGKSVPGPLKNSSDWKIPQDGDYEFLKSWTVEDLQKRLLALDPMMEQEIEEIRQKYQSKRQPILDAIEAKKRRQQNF
Nature of the assay: MST1 kinase assay. It is filed as biochemical. The conditions noted are these: inhibitor concentration of 4 μM; FIG. 3B. The protocol:
MST1 kinase assay—Kinase assays were performed using labeled γ-P^32 ATP and the incorporation of labeled phosphate onto the substrate FOXO was monitored. Kinase assays were performed using kinase buffer containing 10 mM Tris pH 7.5, 10 mM MgCl2, 1 mM dithiothreitol (DTT), 1 mM phenylmethylsulfonyl fluoride (PMSF) and a cocktail containing phosphatase inhibitor. 5 μCi of labeled γ-P^32 ATP and a final concentration of 200 μM of ATP were used for each reaction. 10 nM of the enzyme was pre-incubated for 30 min with various concentrations of inhibitor and an equivalent amount of DMSO was used as a control. After 30 min of incubation of the enzyme with the inhibitor, 1 μg of substrate was added. The reaction was initiated by addition of ATP. All reactions were incubated at 37° C. for 30 min. and then stopped with SDS gel-loading dye; subsequently samples were heated for 3 min and loaded onto a 16% Tris-glycine gel (Novagen). The bands were visualized using high sensitivity Kodak film and the results were quantified using the software ImageJ.

In a further assay the target is BRAF^WT (Homo sapiens, UniProt P15056). Nature of the assay: BRAF kinase assay (wild type). It is filed as biochemical. The protocol:
as §1

The target in the next assay is PAK1 (Homo sapiens, UniProt Q13153). Put plainly: PAK1 kinase assay. Format: biochemical. Conditions: inhibitor concentration of 4 μM; FIG. 3B. The protocol: PAK1 kinase assay—Kinase assays were performed using labeled γ-P^32 ATP and the incorporation of labeled phosphate onto the myelin basic protein (MBP) substrate was monitored. Different concentrations of compound inhibitor were incubated with 0.1 nM PAK1 kinase in 20 mM MOPS pH 7, 30 mM MgCl2, 1 mM EDTA, 0.8 μg/μL bovine serum albumin, 5% DMSO (resulting from the inhibitor stock solution), in the presence of 25 μg of MBP substrate for 20 minutes. Reactions were initiated by adding ATP to a final concentration of 1 μM including 0.2 μCi/μL γ-^32P ATP to a final volume of 25 μL. The reactions were terminated by spotting 17.5 μL onto a circular P81 phosphocellulose paper (diameter 2.1 cm), followed by washing three times with 0.75% phosphoric acid and one time with acetone. The dried P81 papers were transferred to scintillation vials and 4 ml of scintillation cocktail was added. The counts per minute (CPM) were measured with a scintillation counter and the enzyme activity in the presence of the inhibitor was calculated as a percentage of the control sample corrected by the background.
Sequence of PAK1 (Q13153 whole entry): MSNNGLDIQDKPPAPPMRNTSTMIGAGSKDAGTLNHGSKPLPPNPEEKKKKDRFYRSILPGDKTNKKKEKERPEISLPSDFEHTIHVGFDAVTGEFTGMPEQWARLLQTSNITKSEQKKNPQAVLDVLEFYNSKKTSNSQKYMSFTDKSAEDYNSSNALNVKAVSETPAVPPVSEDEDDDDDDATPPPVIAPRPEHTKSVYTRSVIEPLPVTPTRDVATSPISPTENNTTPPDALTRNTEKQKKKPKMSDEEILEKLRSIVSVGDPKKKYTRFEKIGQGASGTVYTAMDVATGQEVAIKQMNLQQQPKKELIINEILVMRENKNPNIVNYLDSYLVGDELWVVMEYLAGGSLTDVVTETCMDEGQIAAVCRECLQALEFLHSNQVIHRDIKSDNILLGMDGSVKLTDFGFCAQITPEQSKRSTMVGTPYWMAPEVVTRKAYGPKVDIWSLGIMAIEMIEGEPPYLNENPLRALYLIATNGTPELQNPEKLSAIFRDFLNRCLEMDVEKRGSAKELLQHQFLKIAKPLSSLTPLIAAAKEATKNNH

In general, IC50 refers to the concentration that inhibits the measured activity by half.

Sequence of BRAF^WT (P15056 whole entry): as the sequence (P15056 whole entry V600E) above, with E600V counted along it

Turning to `CN1C(=O)c2c(c3c4cc(O)ccc4[n]4c3c3c2cc(F)c[n+]3[Ru-2]42356([C]#[O+])[CH]4[CH]2[CH]3[C]5(C(=O)NC(C)(CO)CO)[CH]46)C1=O` (single isomer, unassigned) [Compound E5E1], in assay [1], the “cell proliferation (MTT)” value was “inhibition of cell proliferation”. Besides, the “invasion of melanoma cells from 3D spheroids” value in assay [2] is “completely blocked”. In addition, the IC50 in assay [3] was determined as 41 nM. In assay [4], the “block of constitutive activity of AKT (phospho-AKT)” value was “block the constitutive activity of AKT in a concentration dependent manner”.

For `CN1C(=O)c2c(c3c4cc(O)ccc4[n]4c3c3c2cc(F)c[n+]3[Ru-2]42356([C]#[O+])[CH]4[CH]2[CH]3[C]5(C(=O)NC(C)(CO)CO)[CH]46)C1=O` (single isomer, unassigned) [Compound E5E2], the “inhibition of BRAF^V600E” value at BRAF^V600E is given as “did not show appreciable inhibition”. The IC50 in assay [5] was approximately 10000 nM; in [3] it was 39 nM. Besides, the “inhibition of MST1” value against MST1 is on record as “did not show appreciable inhibition”. The “inhibition of BRAF^WT” value against BRAF^WT (inhibitor concentration of 4 μM, FIG. 3B) was “did not show appreciable inhibition”. Also, the “inhibition against wild-type BRAF” value at BRAF^WT (inhibitor concentration of 10 μM, FIG. 6B) was “no detectable inhibition”. Further, in [3] (comparison among the inhibitors, FIG. 2C, FIG. 9), the “PI3K inhibition / inhibitory potency (in words)” value is listed as “potent”. Also, the “inhibition of PAK1” value on PAK1 is given as “did not show appreciable inhibition”.

Regarding `O=c1cc(N2CCOCC2)oc2c(-c3ccccc3)cccc12` [LY294002, 2-(4-morpholinyl)-8-phenyl-4H-1-benzopyran-4-one, reference compound], the “cell proliferation (MTT)” value in assay [1] was “inhibition of cell proliferation”.
